In ChEMBL document CHEMBL5465560, “Selectivity Literature for EUbOPEN Chemogenomic Library” (2024):
One block for each molecule: values may come before it.

Tests used:
[1] = biological target: Serine/threonine-protein kinase PRP4 homolog (Homo sapiens) (UniProt Q13523); assay: Selectivity interaction (KinomeScan (DiscoverX)) EUB0001049a PRPF4B; conditions: at 1 µM
[2] = biological target: Serine/threonine-protein kinase 10 (Homo sapiens) (UniProt O94804); assay: Selectivity interaction (Ambit KINOMEscan and KiNATiv profiling in Jurkat cells) EUB0000090b STK10; format: cell-based; conditions: at 1 µM
[3] = biological target: Tyrosine-protein kinase CSK (Homo sapiens) (UniProt P41240); assay: Selectivity interaction (ActivX KiNativ screen (kinase selectivity in THP-1 cell lysates)) EUB0000639a CSK; format: subcellular; conditions: lysate
[4] = biological target: Dual specificity protein kinase CLK2 (Homo sapiens, UniProt P49760); assay: Selectivity interaction (KinomeScan (DiscoverX)) EUB0000595a CLK2; conditions: at 10 µM
[5] = biological target: Phosphatidylinositol 4-kinase beta (Homo sapiens, UniProt Q9UBF8); assay: Selectivity interaction (KinomeScan (DiscoverX)) EUB0001079a PI4KB; conditions: at 1 µM
[6] = test system: Tyrosine-protein kinase ABL1 (Homo sapiens), P00519 [F317I]; assay: (§1) Selectivity interaction (KinomeScan (DiscoverX)) EUB0000092b ABL1; conditions: at 10 µM
[7] = test system: Tyrosine-protein kinase ABL1 (Homo sapiens), P00519 [F317L]; assay: as §1; conditions: at 10 µM
[8] = test system: Tyrosine-protein kinase ABL1 (Homo sapiens), P00519 [H396P]; assay: as §1; conditions: at 10 µM
[9] = test system: Tyrosine-protein kinase ABL1 (Homo sapiens), P00519 [M351T]; assay: as §1; conditions: at 10 µM
[10] = test system: Tyrosine-protein kinase ABL1 (Homo sapiens), P00519 [Q252H]; assay: as §1; conditions: at 10 µM
[11] = test system: Tyrosine-protein kinase ABL1 (Homo sapiens), P00519 [T315I]; assay: as §1; conditions: at 10 µM
[12] = biological target: Tyrosine-protein kinase ABL1 (Homo sapiens, UniProt P00519); assay: as §1; conditions: at 10 µM
[13] = biological target: T1, Phosphatidylinositol 5-phosphate 4-kinase type-2 gamma (Homo sapiens) (UniProt Q8TBX8); assay: Selectivity interaction (KinomeScan (DiscoverX)) EUB0001619a PIP4K2C; conditions: at 1 µM
T1 sequence (whole entry): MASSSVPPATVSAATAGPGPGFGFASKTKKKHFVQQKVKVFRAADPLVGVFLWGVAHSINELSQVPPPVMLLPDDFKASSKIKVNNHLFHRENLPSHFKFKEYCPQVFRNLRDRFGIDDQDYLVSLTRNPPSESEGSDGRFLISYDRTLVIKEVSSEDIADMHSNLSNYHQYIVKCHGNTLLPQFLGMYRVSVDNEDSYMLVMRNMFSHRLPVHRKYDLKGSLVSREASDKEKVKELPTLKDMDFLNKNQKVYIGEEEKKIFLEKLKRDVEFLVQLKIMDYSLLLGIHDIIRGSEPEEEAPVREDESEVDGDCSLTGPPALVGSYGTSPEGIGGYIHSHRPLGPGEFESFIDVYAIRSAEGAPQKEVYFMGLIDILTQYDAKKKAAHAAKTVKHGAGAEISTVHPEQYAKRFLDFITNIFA

[14] = biological target: Fibroblast growth factor receptor 1 (Homo sapiens, UniProt P11362); assay: Selectivity interaction (KinomeScan (DiscoverX)) EUB0000618a FGFR1; conditions: at 10 µM
[15] = biological target: Mitogen-activated protein kinase kinase kinase 1 (Homo sapiens, UniProt Q13233); assay: Selectivity interaction (KinomeScan (DiscoverX)) EUB0000607a MAP3K1; conditions: at 10 µM
[16] = biological target: T2, Interleukin-1 receptor-associated kinase 4 (Homo sapiens) (UniProt Q9NWZ3); assay: Selectivity interaction (Kinase panel (KiNativ target engagement assay in Jurkat cells)) EUB0001635a IRAK4; format: cell-based; conditions: Selectivity number of off-targets 0.0, Selectivity number of targets 233.0, Source Knowledge https://www.sciencedirect.com/science/article/pii/S2451945619300674?via%3Dihub, at 1 µM
T2 sequence (whole entry): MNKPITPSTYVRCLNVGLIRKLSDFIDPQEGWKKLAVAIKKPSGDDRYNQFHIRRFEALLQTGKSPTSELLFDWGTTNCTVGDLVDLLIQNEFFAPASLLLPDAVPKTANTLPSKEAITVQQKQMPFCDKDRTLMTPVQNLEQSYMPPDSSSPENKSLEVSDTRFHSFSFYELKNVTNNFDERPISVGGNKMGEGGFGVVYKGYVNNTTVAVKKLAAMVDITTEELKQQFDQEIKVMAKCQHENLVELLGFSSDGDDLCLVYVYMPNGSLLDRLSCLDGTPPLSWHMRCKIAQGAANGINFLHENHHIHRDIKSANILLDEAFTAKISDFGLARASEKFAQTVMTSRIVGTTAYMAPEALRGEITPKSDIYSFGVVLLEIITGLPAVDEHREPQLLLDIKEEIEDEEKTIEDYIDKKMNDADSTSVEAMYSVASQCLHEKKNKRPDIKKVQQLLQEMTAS

[17] = biological target: Cyclin-dependent kinase 16 (Homo sapiens) (UniProt Q00536); assay: Selectivity interaction (Kinase panel (KiNativ target engagement assay in Jurkat cells)) EUB0001635a CDK16; format: cell-based; conditions: Selectivity number of off-targets 0.0, Selectivity number of targets 233.0, Source Knowledge https://www.sciencedirect.com/science/article/pii/S2451945619300674?via%3Dihub, at 1 µM
[18] = biological target: Receptor tyrosine-protein kinase erbB-4 (Homo sapiens, UniProt Q15303); assay: Selectivity interaction (KinomeScan (DiscoverX)) EUB0000666a ERBB4; conditions: at 10 µM

Chain of Tyrosine-protein kinase CSK (Homo sapiens) (P41240 2-450 limits assumed): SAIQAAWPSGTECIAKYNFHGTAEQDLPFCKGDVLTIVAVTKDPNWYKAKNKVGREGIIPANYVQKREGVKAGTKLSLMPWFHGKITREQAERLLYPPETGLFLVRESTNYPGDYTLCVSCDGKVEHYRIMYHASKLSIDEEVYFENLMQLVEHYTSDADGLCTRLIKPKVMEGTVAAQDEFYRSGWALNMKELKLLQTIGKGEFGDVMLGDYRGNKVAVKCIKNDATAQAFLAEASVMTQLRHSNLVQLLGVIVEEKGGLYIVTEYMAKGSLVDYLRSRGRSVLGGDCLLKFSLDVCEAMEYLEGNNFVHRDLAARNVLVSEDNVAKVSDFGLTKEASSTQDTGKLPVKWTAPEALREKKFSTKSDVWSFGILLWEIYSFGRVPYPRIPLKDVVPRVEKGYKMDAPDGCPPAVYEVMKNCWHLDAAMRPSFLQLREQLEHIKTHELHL
Chain of Dual specificity protein kinase CLK2 (P49760 whole entry, looked up): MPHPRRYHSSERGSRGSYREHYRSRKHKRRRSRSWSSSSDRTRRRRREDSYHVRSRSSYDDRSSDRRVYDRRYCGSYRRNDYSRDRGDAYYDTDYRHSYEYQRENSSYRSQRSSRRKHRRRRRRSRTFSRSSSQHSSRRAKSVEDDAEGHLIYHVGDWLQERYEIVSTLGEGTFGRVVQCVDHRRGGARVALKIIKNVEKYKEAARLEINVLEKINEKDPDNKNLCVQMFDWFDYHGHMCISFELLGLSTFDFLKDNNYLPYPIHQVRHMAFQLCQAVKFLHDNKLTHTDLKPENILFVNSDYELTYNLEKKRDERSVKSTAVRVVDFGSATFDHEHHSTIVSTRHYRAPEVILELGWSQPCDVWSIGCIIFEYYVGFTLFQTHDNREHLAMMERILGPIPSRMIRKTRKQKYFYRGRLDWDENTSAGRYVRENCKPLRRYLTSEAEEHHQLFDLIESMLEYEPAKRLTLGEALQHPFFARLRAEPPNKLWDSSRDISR
Chain of Serine/threonine-protein kinase 10 (Homo sapiens) (O94804 whole entry, looked up): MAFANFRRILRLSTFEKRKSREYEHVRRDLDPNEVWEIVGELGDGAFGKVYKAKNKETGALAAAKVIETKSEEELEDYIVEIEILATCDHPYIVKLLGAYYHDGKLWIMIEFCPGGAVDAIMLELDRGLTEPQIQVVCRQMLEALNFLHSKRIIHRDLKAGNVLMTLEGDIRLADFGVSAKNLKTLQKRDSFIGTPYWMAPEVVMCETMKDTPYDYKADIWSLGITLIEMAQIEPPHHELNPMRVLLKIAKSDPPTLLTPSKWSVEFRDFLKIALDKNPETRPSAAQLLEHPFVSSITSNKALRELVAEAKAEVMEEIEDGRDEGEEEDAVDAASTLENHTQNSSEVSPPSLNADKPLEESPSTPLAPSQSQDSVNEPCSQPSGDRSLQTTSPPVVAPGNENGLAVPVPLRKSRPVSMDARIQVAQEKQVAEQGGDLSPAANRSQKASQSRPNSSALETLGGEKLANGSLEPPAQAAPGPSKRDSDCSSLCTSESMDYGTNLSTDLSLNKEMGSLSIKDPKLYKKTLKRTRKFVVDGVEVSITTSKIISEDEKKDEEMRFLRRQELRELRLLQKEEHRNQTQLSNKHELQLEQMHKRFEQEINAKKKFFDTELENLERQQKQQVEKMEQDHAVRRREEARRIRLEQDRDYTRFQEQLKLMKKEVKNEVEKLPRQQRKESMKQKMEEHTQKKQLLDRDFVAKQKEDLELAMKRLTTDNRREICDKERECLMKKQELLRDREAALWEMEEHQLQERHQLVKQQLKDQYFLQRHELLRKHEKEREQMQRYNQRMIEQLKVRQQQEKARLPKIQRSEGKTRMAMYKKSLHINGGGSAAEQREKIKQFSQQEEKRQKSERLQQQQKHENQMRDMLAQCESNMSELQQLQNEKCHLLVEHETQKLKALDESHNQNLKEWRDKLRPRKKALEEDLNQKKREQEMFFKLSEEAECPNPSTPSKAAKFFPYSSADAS
Chain of Mitogen-activated protein kinase kinase kinase 1 (Q13233 whole entry): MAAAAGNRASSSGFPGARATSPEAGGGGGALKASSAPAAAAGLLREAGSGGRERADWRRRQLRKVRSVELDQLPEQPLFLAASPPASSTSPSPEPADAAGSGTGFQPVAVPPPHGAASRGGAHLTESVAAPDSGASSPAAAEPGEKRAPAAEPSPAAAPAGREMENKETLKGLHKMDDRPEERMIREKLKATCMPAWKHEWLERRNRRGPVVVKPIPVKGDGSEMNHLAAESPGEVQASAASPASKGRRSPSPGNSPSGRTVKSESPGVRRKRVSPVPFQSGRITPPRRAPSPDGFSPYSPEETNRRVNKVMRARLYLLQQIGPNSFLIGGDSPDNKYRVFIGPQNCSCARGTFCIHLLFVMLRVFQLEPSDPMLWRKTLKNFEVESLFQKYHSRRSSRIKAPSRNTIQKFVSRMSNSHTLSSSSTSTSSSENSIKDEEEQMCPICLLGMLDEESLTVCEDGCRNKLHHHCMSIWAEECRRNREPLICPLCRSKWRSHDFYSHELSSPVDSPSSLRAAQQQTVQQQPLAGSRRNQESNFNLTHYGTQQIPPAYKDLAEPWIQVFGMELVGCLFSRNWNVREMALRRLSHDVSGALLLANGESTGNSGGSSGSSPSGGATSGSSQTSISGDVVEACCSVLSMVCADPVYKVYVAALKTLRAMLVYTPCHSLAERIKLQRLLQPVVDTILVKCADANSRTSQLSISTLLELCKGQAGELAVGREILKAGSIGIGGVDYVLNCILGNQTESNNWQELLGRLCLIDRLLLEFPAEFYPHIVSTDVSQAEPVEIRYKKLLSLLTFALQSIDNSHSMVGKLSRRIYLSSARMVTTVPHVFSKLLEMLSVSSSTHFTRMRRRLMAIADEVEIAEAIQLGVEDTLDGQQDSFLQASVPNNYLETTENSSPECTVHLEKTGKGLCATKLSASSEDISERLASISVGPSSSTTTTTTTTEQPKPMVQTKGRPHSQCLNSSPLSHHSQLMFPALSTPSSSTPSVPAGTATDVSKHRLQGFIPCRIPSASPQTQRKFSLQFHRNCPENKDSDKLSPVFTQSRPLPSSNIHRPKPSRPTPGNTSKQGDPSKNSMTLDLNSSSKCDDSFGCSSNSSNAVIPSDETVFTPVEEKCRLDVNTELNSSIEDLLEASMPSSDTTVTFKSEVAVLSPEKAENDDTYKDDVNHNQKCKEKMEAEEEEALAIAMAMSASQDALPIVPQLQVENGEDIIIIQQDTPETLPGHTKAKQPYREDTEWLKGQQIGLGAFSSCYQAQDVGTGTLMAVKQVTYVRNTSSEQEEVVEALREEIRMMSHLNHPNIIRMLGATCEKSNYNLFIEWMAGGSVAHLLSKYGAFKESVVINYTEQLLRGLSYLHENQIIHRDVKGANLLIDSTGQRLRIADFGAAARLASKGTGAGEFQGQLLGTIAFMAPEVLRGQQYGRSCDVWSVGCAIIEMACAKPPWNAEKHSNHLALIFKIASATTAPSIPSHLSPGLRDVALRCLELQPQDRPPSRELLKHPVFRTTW
Chain of Serine/threonine-protein kinase PRP4 homolog (Homo sapiens) (Q13523 whole entry): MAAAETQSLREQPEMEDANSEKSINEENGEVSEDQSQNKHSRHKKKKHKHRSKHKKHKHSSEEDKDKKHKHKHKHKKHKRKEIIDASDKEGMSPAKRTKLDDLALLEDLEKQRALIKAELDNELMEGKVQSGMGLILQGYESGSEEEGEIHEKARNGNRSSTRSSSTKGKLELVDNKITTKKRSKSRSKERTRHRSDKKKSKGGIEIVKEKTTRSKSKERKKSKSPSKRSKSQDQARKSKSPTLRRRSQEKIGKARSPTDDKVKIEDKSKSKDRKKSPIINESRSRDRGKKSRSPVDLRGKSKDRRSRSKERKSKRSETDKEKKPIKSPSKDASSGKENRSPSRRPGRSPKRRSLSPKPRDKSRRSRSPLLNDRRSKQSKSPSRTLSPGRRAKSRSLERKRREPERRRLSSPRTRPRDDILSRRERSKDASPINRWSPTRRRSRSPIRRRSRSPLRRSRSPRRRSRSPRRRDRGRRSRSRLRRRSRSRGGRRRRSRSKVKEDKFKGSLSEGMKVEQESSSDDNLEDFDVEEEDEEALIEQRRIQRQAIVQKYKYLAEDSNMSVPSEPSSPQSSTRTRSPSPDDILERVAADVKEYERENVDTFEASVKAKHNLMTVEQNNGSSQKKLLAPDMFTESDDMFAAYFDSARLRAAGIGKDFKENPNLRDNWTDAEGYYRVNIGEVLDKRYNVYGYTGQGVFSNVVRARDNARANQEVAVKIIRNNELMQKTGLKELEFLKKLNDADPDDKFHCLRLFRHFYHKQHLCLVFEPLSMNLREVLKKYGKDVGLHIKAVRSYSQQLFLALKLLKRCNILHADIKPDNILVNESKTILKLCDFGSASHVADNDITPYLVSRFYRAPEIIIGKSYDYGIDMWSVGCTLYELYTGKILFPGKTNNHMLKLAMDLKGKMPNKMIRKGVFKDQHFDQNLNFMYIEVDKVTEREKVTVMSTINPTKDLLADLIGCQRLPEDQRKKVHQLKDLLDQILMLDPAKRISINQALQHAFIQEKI
Chain of Cyclin-dependent kinase 16 (Homo sapiens) (Q00536 whole entry): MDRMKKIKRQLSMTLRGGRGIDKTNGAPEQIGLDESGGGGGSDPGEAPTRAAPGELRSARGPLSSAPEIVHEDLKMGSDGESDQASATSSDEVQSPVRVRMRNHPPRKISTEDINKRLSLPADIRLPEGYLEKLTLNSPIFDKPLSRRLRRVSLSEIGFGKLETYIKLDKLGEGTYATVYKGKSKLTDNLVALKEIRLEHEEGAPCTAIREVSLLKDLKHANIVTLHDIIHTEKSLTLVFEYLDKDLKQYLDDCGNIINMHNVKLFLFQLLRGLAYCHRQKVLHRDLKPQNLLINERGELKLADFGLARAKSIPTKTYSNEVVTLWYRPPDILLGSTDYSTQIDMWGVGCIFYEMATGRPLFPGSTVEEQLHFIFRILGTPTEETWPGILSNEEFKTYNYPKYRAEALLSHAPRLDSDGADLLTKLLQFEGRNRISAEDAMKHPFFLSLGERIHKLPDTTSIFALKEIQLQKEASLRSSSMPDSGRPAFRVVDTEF

SMILES: COc1cc(Nc2nc(C)cc(-c3cnn4nc(OC)ccc34)n2)cc(C(F)(F)F)c1
- % of control [1]: 100%

SMILES: CN(C)C/C=C/C(=O)Nc1ccc(C(=O)N2CCCC(Nc3ncc(Cl)c(-c4c[nH]c5ccccc45)n3)C2)cc1 (configuration not stated)
- % of control [2]: 80%

- % of inhibition ([3]; at 0.01 µM): 4.3%
- % of inhibition ([3]; at 0.04 µM): -0.3%
- % of inhibition ([3]; at 0.2 µM): -3.8%
- % of inhibition ([3]; at 1 µM): 10.3%
- % of inhibition ([3]; at 5 µM): -8.3%
SMILES: CC[C@@H]1[C@H](F)C(=O)N[C@@H]1COc1nccc2cc(C(N)=O)c(OC)cc12 [ZIMLOVISERTIB]

SMILES: COCC(=O)NC/C=C/c1ccc2ncnc(Nc3ccc(Oc4ccc(C)nc4)c(C)c3)c2c1 [CP-724714]
- % of control [4]: 75%

SMILES: Nc1cnc(N2CCc3cc(S(=O)(=O)Nc4c(F)cc(Cl)cc4F)cc(N4CCCC4=O)c32)nc1 [TP-020n]
- % of control [5]: 93%

SMILES: CCC(=O)N1CCN(c2ccc(-n3c(=O)ccc4cnc5ccc(-c6cnc7ccccc7c6)cc5c43)cc2C(F)(F)F)CC1
- % of control [6]: 100%
- % of control [7]: 100%
- % of control [8]: 68%
- % of control [9]: 100%
- % of control [10]: 89%
- % of control [11]: 100%
- % of control [12]: 60%

SMILES: N#Cc1cccc(-c2c[nH]c3ncnc(N4CCOCC4)c23)c1
- % of control [13]: 21%

SMILES: O[C@H]1CC[C@H](Nc2ncc3nc(Nc4c(F)cc(F)cc4F)n([C@H]4CCOC4)c3n2)CC1
- % of control [14]: 69%

SMILES: CNC(=O)Nc1ccc(-c2nc(N3CC4CCC(C3)O4)c3cnn(C4CCC5(CC4)OCCO5)c3n2)cc1
- % of control [15]: 58%

SMILES: C=CC(=O)Nc1ccc(C(=O)Nc2[nH]nc3c2CN(C(=O)N[C@H](CN(C)C)c2ccccc2)C3(C)C)cc1
- % of engagement [16]: 0.4%
- % of engagement [17]: 2.3%

SMILES: O=C(NOC[C@H](O)CO)c1ccc(F)c(F)c1Nc1ccc(I)cc1F
- % of control [18]: 100%
